Measured values from patent EP4745153A1, “GLP-1, GIP AND GCG RECEPTOR […] USE THEREOF” (Jiangsu Hengrui Pharmaceuticals Co., Ltd., priority 2023, dated 2025).
One block for each compound: values may come before it. Starred links: 1 amine or outer side, 2 acyl side, 3 side chain; linkers in the order of their positions; H or OH if unused. Non-standard residues stand in square brackets, D forms with d. Residues, ends and D or L forms follow the SMILES beside them. Groups on a side chain read outwards from the residue. No end group written: not given here. *: point of attachment. C20 diacid = O=C(O)CCCCCCCCCCCCCCCCCCC(=O)*; γGlu = O=C(O)[C@H](CCC(=O)[*:2])N[*:1]; αMeL = CC(C)C[C@](C)(N)C(=O)O; αMeK = C[C@](N)(CCCCN)C(=O)O; AEEA = NCCOCCOCC(=O)O; αS = not defined here; Aib = CC(C)(N)C(=O)O

Experiments:
human GLP-1R = target: T1, human GLP-1R (Homo sapiens, UniProt P43220); experiment: cAMP HTRF agonist activity assay in CHO-K1 cells expressing GLP-1R; type: cell-based
T1 construct: expressed in transfected cells; host or cells: CHO-K1 clonal cell line
How it was run: (§1)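 Clonal CHO-K1 lines, 5000 cells/well, exposed to polypeptides for 30 min at 37°C. Intracellular cAMP read by HTRF (cAMP-d2 conjugate plus anti-cAMP-Eu cryptate in lysis buffer). Relative EC50 from four-parameter nonlinear fit of percent maximum response against concentration.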

human GIPR = target: T2, human GIPR (Homo sapiens, UniProt P48546); experiment: cAMP HTRF agonist activity assay in CHO-K1 cells expressing GIPR; type: cell-based
T2 construct: expressed in transfected cells; host or cells: CHO-K1 clonal cell line
T2 sequence (P48546 22-466): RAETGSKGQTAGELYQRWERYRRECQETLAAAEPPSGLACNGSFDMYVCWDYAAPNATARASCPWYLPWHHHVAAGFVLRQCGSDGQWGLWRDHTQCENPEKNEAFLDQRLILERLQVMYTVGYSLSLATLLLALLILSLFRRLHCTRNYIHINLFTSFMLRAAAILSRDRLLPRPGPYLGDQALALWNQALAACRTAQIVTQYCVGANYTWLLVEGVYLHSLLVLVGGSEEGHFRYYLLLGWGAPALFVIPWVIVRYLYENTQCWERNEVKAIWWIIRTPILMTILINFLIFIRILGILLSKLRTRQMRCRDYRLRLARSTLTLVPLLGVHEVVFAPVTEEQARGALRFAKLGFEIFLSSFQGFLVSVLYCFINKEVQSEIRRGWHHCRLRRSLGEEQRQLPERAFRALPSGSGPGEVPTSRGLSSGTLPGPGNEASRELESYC
How it was run: as §1

[1] = Pharmacokinetics in mice after single intravenous injection; design: species or system C57 mice; settings: mouse, in vivo, male C57 mice, single intravenous dose 200 nmol/kg, plasma
How it was run: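 Male C57 mice (~25 g, 4-6 weeks, n=3) received a single i.v. dose of 200 nmol/kg in 1×PBS. Plasma collected from 5 min to 72 h was methanol-precipitated with verapamil internal standard and quantified by LC-MS (ESI positive, MRM); PK parameters were calculated by PKSolver.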

[2] = In vivo efficacy in diet-induced obesity (DIO) mouse model; design: species or system C57BL/6J mice; settings: 10 nmol/kg subcutaneous once daily for 24 days, indicating good safety
From the text: In this example, a DIO mouse model established by high-fat diet induction was used to evaluate the effects on and improvement of obesity and diabetes-related indicators in DIO mice after subcutaneous injection of some of the compounds in the present disclosure.
4.1 Experimental methods: Obese male C57BL/6J mice (23-24 weeks old, obtained from Beijing Vital River Laboratory Animal Technology Co., Ltd.) induced by a high-fat diet were purchased. Six-week-old male C57BL/6J mice were fed a 60% high-fat diet (RD D12492) until their body weight reached 45-50g to obtain DIO model mice. After arriving at the facility and undergoing a week of acclimatization feeding, the animals were randomly divided into groups according to their body weight and administered vehicle (model group), LY3437943, Compound 15, Compound 16, Compound 17 and Compound 18 via subcutaneous injection in the neck. The compound was administered at a dose of 10 nmol/kg, and the frequency of administration was once daily via subcutaneous injection for 24 days. Each group contained 5 DIO mice. According to the experimental design, the body weight of each mouse was weighed and recorded daily at 3 pm or before administration, the average body weight of each group of mice was calculated, and a curve of body weight change over time was plotted. After the experiment, the fat and other organs of the mice were removed from various parts of the body, weighed, and recorded.

[3] = Solubility in the vehicle; type: physicochemical; settings: stated in the summary only, no test example
[4] = Physical stability of solution in the vehicle; type: physicochemical; settings: incubation at 25 degrees Celsius for 28 days; stated in the description, no method given
[5] = target: human glucagon-like peptide-1 receptor (human, UniProt P43220 24-463); experiment: cell-based or functional assay
human glucagon receptor = human glucagon receptor (human, UniProt P47871 26-477); experiment: cell-based or functional assay
[6] = target: human glucose-dependent insulinotropic polypeptide receptor (human) (UniProt P48546); experiment: cell-based or functional assay

T1 sequence (P43220 24-463): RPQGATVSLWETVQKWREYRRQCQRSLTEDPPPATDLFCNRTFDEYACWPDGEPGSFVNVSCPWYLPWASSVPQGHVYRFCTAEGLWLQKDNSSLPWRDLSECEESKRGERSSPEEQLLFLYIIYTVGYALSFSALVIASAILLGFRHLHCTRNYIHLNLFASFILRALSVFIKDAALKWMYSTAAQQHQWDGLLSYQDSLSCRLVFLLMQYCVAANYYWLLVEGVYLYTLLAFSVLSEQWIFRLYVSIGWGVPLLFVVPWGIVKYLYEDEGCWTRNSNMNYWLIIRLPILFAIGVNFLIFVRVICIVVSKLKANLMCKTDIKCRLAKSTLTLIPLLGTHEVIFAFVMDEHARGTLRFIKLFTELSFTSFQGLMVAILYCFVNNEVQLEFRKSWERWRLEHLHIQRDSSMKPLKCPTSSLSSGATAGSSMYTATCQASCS
Sequence of human glucagon-like peptide-1 receptor (P43220 24-463): as above
Sequence of human glucagon receptor (P47871 26-477): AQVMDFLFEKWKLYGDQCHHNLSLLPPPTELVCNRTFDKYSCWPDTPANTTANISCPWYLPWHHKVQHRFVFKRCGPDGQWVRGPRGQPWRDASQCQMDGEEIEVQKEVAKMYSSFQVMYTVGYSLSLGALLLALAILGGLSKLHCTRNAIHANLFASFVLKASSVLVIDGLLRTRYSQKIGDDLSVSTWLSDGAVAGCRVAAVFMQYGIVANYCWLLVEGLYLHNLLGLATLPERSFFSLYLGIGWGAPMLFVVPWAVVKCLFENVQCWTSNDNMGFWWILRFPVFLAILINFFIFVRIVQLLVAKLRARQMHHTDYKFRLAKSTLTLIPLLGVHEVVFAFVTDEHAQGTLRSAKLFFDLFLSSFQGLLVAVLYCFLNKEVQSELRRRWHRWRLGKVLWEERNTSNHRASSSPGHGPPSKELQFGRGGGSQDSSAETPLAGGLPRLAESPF

Compound: CC[C@H](C)[C@H](NC(=O)[C@H](CO)NC(=O)[C@H](Cc1ccc(O)cc1)NC(=O)[C@H](CC(=O)O)NC(=O)[C@H](CO)NC(=O)[C@@H](NC(=O)[C@H](Cc1ccccc1)NC(=O)[C@@H](NC(=O)CNC(=O)[C@H](Cc1c[nH]cn1)NC(=O)C(C)(C)NC(=O)[C@@H](N)Cc1c[nH]cn1)[C@@H](C)O)[C@@H](C)O)C(=O)N[C@@](C)(CC(C)C)C(=O)N[C@@H](CC(C)C)C(=O)N[C@@H](CCC(=O)O)C(=O)N[C@@H](CCCCNC(=O)COCCOCCNC(=O)COCCOCCNC(=O)CC[C@H](NC(=O)CCCCCCCCCCCCCCCCCCC(=O)O)C(=O)O)C(=O)N[C@@H](CCCCN)C(=O)N[C@@H](C)C(=O)N[C@@H](C)C(=O)N[C@@H](CCC(N)=O)C(=O)N[C@@H](CCC(=O)O)C(=O)N[C@@H](Cc1ccccc1)C(=O)N[C@H](C(=O)N[C@@H](CCC(=O)O)C(=O)N[C@@H](Cc1c[nH]c2ccccc12)C(=O)N[C@@H](CC(C)C)C(=O)N[C@@H](CC(C)C)C(=O)N[C@@H](C)C(=O)NCC(=O)NCC(=O)N1CCC[C@H]1C(=O)N[C@@H](CO)C(=O)N[C@@H](CO)C(=O)NCC(=O)N[C@@H](C)C(=O)N1CCC[C@H]1C(=O)N1CCC[C@H]1C(=O)N1CCC[C@H]1C(=O)N[C@@H](CO)C(N)=O)C(C)C [Compound 0125] (H-H[Aib]HGTFTSDYSI[αMeL]LEK([AEEA-AEEA-γGlu-C20 diacid])KAAQEFVEWLLAGGPSSGAPPPS-NH2)
- EC50 (human GLP-1R): 0.032 nM
- EC50 (human GIPR): 0.002 nM
- AUC(0-inf) [1]: 96.1 µM·h
- C0 [1]: 5.79 µM
- clearance ([1]; read-out: CLp): 2.1 mL/h/kg
- half-life ([1]; read-out: T1/2 (converted)): 14.6 h
- final body weight relative to body weight of mice on a normal diet (Chow) [2]: ≥ 80%
- solubility in the vehicle [3]: ≥ 20 mg/mL

Compound: H-Aib-HGTFTSDYS-αK-LLE-K(-OEG-OEG-γGlu-C(O)-(CH2)18-COOH)-KAA-αS-EFVEWLIEGGPSSGAPPPS-NH2 (H[Aib]HGTFTSDYS[αMeK]LLEK([AEEA-AEEA-γGlu-C20 diacid])KAA[αS]EFVEWLIEGGPSSGAPPPS-NH2; reading uncertain; also: printed as H-Aib-HGTFTSDYS-αK-LLE-K(-OEG-OEG-γGlu-C(O)-(CH2)18-COOH)-KAA-αS-EFVEWLIEGGPSSGAPPPS-NH2) [Compound 0126]
- appearance of the solution in the vehicle [4]: remains clear and transparent

- Activity against human GLP-1R (EC50 nM) [5]: 0.08 nM
- Activity against human GCGR (EC50 nM) (human glucagon receptor): 0.412 nM
- Activity against human GIPR (EC50 nM) [6]: 0.002 nM
Compound: LY3437943 (peptide)

Compound: H-Aib-HGTFTSDYSI-αL-LE-K(-OEG-OEG-γGlu-C(O)-(CH2)18-COOH)-KAAQEFVEWLLAGGPSSGAPPPS-NH2 (H[Aib]HGTFTSDYSI[αMeL]LEK([AEEA-AEEA-γGlu-C20 diacid])KAAQEFVEWLLAGGPSSGAPPPS-NH2; N-terminus assumed; SMILES CC[C@H](C)[C@H](NC(=O)[C@H](CO)NC(=O)[C@H](Cc1ccc(O)cc1)NC(=O)[C@H](CC(=O)O)NC(=O)[C@H](CO)NC(=O)[C@@H](NC(=O)[C@H](Cc1ccccc1)NC(=O)[C@@H](NC(=O)CNC(=O)[C@H](Cc1c[nH]cn1)NC(=O)C(C)(C)NC(=O)[C@@H](N)Cc1c[nH]cn1)[C@@H](C)O)[C@@H](C)O)C(=O)N[C@@](C)(CC(C)C)C(=O)N[C@@H](CC(C)C)C(=O)N[C@@H](CCC(=O)O)C(=O)N[C@@H](CCCCNC(=O)COCCOCCNC(=O)COCCOCCNC(=O)CC[C@H](NC(=O)CCCCCCCCCCCCCCCCCCC(=O)O)C(=O)O)C(=O)N[C@@H](CCCCN)C(=O)N[C@@H](C)C(=O)N[C@@H](C)C(=O)N[C@@H](CCC(N)=O)C(=O)N[C@@H](CCC(=O)O)C(=O)N[C@@H](Cc1ccccc1)C(=O)N[C@H](C(=O)N[C@@H](CCC(=O)O)C(=O)N[C@@H](Cc1c[nH]c2ccccc12)C(=O)N[C@@H](CC(C)C)C(=O)N[C@@H](CC(C)C)C(=O)N[C@@H](C)C(=O)NCC(=O)NCC(=O)N1CCC[C@H]1C(=O)N[C@@H](CO)C(=O)N[C@@H](CO)C(=O)NCC(=O)N[C@@H](C)C(=O)N1CCC[C@H]1C(=O)N1CCC[C@H]1C(=O)N1CCC[C@H]1C(=O)N[C@@H](CO)C(N)=O)C(C)C) [Compound 0125]
- appearance of the solution in the vehicle [4]: remains clear and transparent
